Results reported in patent US20220232861A1, “ZINC COMPOUNDS IN FOOD IMMERSION APPLICATIONS” (SAFE FOODS CORPORATION, priority 2019, published 2022).
Where two headings read alike, the source gives them in different places.

Assays:
Aerobic plate count [1] = settings: Example 3; for Aerobic plate count: drums dipped 10 s, drip 60 s, control 5.2
Experimental: (§1) Drums (poultry) were purchased from a local retailer, frozen, and thawed for testing. The parts were allowed to sit at room temperature for 24 hours prior to testing. As a control, five drums (Sample IDs 1-5) were individually, aseptically rinsed (100 ml of rinsate).
(§2) Next, approximately 630 mL of 3,000 ppm zinc sulfate was added and manually agitated in 1 gallon of tap water in a 3-gallon bucket to yield a 500 ppm zinc sulfate solution. Five drums (Sample IDs 6-10) were fully submerged in the zinc sulfate solution, manually agitated for 10 seconds, then removed and allowed to drip for 60 seconds. The drums were individually, aseptically rinsed.
(§3) Next, 1 gallon of water and 4 ml of sulfuric acid were added to a bucket to yield a solution having a pH of 1.2. Five drums (Sample IDs 11-15) were fully submerged in the sulfuric acid solution, manually agitated for 10 seconds, then removed and allowed to drip for 60 seconds. The drums were individually, aseptically rinsed.
(§4) Lastly, 1 gallon of water and 630 mL of 3,000 ppm zinc sulfate/sulfuric acid solution were added to a bucket to yield a 500 ppm zinc sulfate/sulfuric acid solution having a pH of 1.2. Five drums (Sample IDs 16-20) were fully submerged in the zinc sulfate/sulfuric acid solution, manually agitated for 10 seconds, then removed and allowed to drip for 60 seconds. The drums were individually, aseptically rinsed.
(§5) All rinsate samples collected were placed in a refrigerator overnight. The samples were analyzed for 3M Aerobic Plate Count (APC) Petrifilm™ (AOAC Official Method 990.12), E. coli/Coliform (EC/CO) Petrifilm™ (AOAC Official Method 998.08), and Enterobacteriaceae (EB) Petrifilm™ (AOAC Official Method 2003.01). The samples were recorded as counts, which were then converted to log10 CFU/mL for statistical analysis of the means.

Enterobacteriaceae [2] = settings: Example 3; for Enterobacteriaceae: drums dipped 10 s, drip 60 s, control 2.8
Experimental: as §1, §2, §3, §4, §5

Aerobic plate count [3] = settings: Example 4; for Aerobic plate count: drums dipped 10 s, drip 60 s, control 7.9; for APC result versus control, in words: single treatments: 500 ppm zinc sulfate only (samples 6-10) or sulfuric acid pH 1.2 or less
Experimental: (§6) All rinsate samples collected were placed in a refrigerator overnight. The samples were analyzed for 3M Aerobic Plate Count (APC) Petrifilm™ (AOAC Official Method 990.12), and Enterobacteriaceae (EB) Petrifilm™ (AOAC Official Method 2003.01). The samples were recorded as counts, which were then converted to log10 CFU/mL for statistical analysis of the means.

Enterobacteriaceae [4] = settings: Example 4; for Enterobacteriaceae: drums dipped 10 s, drip 60 s, control 4.9; for EB analysis result versus control, in words: single treatments: 500 ppm zinc sulfate only (samples 6-10) or sulfuric acid pH 1.2 or less
Experimental: as §6

Salmonella species = settings: ppm = mg of zinc per L of treatment solution; cited from earlier work
[5] = 1.2 pH sulfuric acid alone, Sample IDs 11-15
[6] = 500 ppm zinc sulfate alone, Sample IDs 6-10

Structure (SMILES) | Aerobic plate count, reduction from control (Aerobic plate count [1]; [5]) [log10 CFU/ml] | Aerobic plate count (Aerobic plate count [1]; [5]) [log10 CFU/ml] | Enterobacteriaceae, reduction from control (Enterobacteriaceae [2]; [5]) [log10 CFU/ml] | Enterobacteriaceae (Enterobacteriaceae [2]; [5]) [log10 CFU/ml] | Aerobic plate count, reduction from control (Aerobic plate count [3]; [5]) [log10 CFU/ml] | Aerobic plate count (Aerobic plate count [3]; [5]) [log10 CFU/ml] | APC result versus control, in words (Aerobic plate count [3]) | Enterobacteriaceae, reduction from control (Enterobacteriaceae [4]; [5]) [log10 CFU/ml] | Enterobacteriaceae (Enterobacteriaceae [4]; [5]) [log10 CFU/ml] | EB analysis result versus control, in words (Enterobacteriaceae [4]) | Aerobic plate count, reduction from control (Aerobic plate count [1]; [6]) [log10 CFU/ml] | Aerobic plate count (Aerobic plate count [1]; [6]) [log10 CFU/ml] | Enterobacteriaceae, reduction from control (Enterobacteriaceae [2]; [6]) [log10 CFU/ml] | Enterobacteriaceae (Enterobacteriaceae [2]; [6]) [log10 CFU/ml] | Aerobic plate count, reduction from control (Aerobic plate count [3]; [6]) [log10 CFU/ml] | Aerobic plate count (Aerobic plate count [3]; [6]) [log10 CFU/ml] | minimum inhibitory concentration (MIC) (Salmonella species) | Enterobacteriaceae, reduction from control (Enterobacteriaceae [4]; [6]) [log10 CFU/ml] | Enterobacteriaceae (Enterobacteriaceae [4]; [6]) [log10 CFU/ml]
O=S(=O)(O)O [sulfuric acid, reference compound] | 0.6 | 4.6 | 1.1 | 1.7 | 0.7 | 7.2 | statistically significant reductions | 0.5 | 4.4 | statistically significant reductions |  |  |  |  |  |  |  |  | 
O=S(=O)([O-])[O-].[Zn+2] [zinc sulfate] |  |  |  |  |  |  | statistically significant microbial reduction |  |  | statistically significant microbial reduction | 0.7 | 4.5 | 1.1 | 1.7 | 0.7 | 7.2 | about 0.25 ppm | 1.9 | 3.3
